Legend:
Grp94 = Grp94 (Canis lupus familiaris, UniProt P41148); details: read-out: Grp94; FP competition, 6 nM Cy3B-GM, 10 nM protein, 4° C. for 24 h
Hsp90α = Hsp90α (Homo sapiens, UniProt P07900); assay: biochemical; details: FP competition, 6 nM Cy3B-GM, 10 nM protein, 4° C. for 24 h
Hsp90β = Hsp90β (Homo sapiens, UniProt P08238)
Hsp90β, sequence (P08238 whole entry): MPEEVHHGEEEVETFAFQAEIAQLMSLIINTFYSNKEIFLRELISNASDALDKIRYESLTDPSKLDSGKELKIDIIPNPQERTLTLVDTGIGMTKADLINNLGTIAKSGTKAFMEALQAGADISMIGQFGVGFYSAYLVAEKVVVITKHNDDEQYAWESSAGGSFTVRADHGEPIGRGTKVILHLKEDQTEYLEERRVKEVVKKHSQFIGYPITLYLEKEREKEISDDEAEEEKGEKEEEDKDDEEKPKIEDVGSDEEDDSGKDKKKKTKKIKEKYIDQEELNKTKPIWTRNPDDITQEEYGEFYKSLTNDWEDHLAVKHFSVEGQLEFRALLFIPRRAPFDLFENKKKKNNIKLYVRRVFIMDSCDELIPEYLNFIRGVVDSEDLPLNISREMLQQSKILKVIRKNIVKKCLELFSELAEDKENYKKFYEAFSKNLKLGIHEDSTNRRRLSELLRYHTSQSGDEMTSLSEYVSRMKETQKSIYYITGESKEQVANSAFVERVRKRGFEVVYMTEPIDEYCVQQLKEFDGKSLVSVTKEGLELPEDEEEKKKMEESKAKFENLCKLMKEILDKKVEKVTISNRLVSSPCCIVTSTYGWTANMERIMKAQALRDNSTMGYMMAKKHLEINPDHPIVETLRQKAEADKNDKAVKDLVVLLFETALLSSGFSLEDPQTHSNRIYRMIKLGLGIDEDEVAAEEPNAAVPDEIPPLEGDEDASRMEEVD

Grp94, sequence (P41148 with tags, fused parts or gaps DELINS287-327GGGG): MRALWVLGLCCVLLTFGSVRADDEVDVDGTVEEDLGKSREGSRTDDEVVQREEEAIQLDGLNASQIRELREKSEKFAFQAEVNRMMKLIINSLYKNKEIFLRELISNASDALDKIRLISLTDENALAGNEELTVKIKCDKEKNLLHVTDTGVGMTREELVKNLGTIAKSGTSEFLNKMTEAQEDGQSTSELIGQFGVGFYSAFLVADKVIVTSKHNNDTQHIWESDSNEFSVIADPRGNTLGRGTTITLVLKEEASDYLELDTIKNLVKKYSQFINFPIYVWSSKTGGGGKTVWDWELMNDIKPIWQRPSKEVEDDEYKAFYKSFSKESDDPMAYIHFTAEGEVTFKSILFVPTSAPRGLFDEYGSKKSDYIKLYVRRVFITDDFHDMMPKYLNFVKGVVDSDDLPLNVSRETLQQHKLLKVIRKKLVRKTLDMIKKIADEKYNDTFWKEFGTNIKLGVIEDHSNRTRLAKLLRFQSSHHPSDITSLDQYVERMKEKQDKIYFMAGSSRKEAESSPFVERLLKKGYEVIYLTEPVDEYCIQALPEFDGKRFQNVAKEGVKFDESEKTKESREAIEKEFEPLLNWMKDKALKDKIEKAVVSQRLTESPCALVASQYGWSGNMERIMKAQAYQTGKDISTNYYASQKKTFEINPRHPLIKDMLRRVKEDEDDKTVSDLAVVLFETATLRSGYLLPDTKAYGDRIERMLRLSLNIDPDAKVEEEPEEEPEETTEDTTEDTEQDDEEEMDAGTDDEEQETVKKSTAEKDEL

IC50 (Grp94) [µM] | IC50 (Hsp90α) [µM] | IC50 (Hsp90β) [µM] | SMILES
0.26 | 47.5 | – | COc1cccc(-c2cc(Cl)cc(Sc3nc4c(N)ncnc4n3CCCNC(C)C)c2)c1 [HJP-VI-7, 8-((5-chloro-3′-methoxy-[1,1′-biphenyl]-3-yl)thio)-9-(3-(isopropylamino)propyl)-9H-purin-6-amine]
0.58 | 47.3 | – | CC(C)NCCCn1c(Sc2cc(Cl)cc(-c3cccc([N+](=O)[O-])c3)c2)nc2c(N)ncnc21 [HJP-VI-8, 8-((5-chloro-3′-nitro-[1,1′-biphenyl]-3-yl)thio)-9-(3-(isopropylamino)propyl)-9H-purin-6-amine]
0.26 | 13.8 | – | CC(C)NCCCn1c(Sc2cc(Cl)cc(-c3cccc(C(F)(F)F)c3)c2)nc2c(N)ncnc21 [HJP-VI-9, 8-((5-chloro-3′-(trifluoromethyl)-[1,1′-biphenyl]-3-yl)thio)-9-(3-(isopropylamino)propyl)-9H-purin-6-amine]
0.16 | 7.9 | – | CC(C)NCCCn1c(Sc2cc(Cl)cc(-c3cccs3)c2)nc2c(N)ncnc21 [HJP-VI-10, 8-((3-chloro-5-(thiophen-2-yl)phenyl)thio)-9-(3-(isopropylamino)propyl)-9H-purin-6-amine]
0.16 | > 50 | – | CC(C)=C(C)c1cc(Cl)cc(Sc2nc3c(N)ncnc3n2CCCNC(C)C)c1 [HJP-VI-14, 8-((3-chloro-5-(3-methylbut-2-en-2-yl)phenyl)thio)-9-(3-(isopropylamino)propyl)-9H-purin-6-amine]
1.5 | > 50 | – | CC(C)NCCCn1c(Sc2ccc(Cl)cc2F)nc2c(N)ncnc21 [HJP-VI-23, 8-((4-chloro-2-fluorophenyl)thio)-9-(3-(isopropylamino)propyl)-9H-purin-6-amine]
0.32 | 16.7 | – | CC(C)NCCCn1c(Sc2cc(Cl)cc(-c3ccco3)c2)nc2c(N)ncnc21 [HJP-VI-30, 8-((3-chloro-5-(furan-2-yl)phenyl)thio)-9-(3-(isopropylamino)propyl)-9H-purin-6-amine]
> 5 | 14.2 | – | CC(C)NCCCn1c(Sc2ccc(Cl)cc2[N+](=O)[O-])nc2c(N)ncnc21 [HJP-VI-32, 8-((4-chloro-2-nitrophenyl)thio)-9-(3-(isopropylamino)propyl)-9H-purin-6-amine]
0.75 | 25.9 | – | Cc1ccc(-c2cc(Cl)cc(Sc3nc4c(N)ncnc4n3CCCNC(C)C)c2)o1 [HJP-VI-38, 8-((3-chloro-5-(5-methylfuran-2-yl)phenyl)thio)-9-(3-(isopropylamino)propyl)-9H-purin-6-amine]
1.1 | 66.9 | – | CC(C)NCCCn1c(Sc2ccc(Cl)cc2-c2ccc[nH]2)nc2c(N)ncnc21 [HJP-VI-42, 8-((4-chloro-2-(1H-pyrrol-2-yl)phenyl)thio)-9-(3-(isopropylamino)propyl)-9H-purin-6-amine]
1.9 | 15.9 | – | CC(C)NCCCn1c(Sc2cc(Cl)cc(-c3cn[nH]c3)c2)nc2c(N)ncnc21 [HJP-VI-46, 8-((3-chloro-5-(1H-pyrazol-4-yl)phenyl)thio)-9-(3-(isopropylamino)propyl)-9H-purin-6-amine]
1.2 | > 50 | – | CC(C)C#Cc1cc(Cl)cc(Sc2nc3c(N)ncnc3n2CCCNC(C)C)c1 [HJP-VI-51, 8-((3-chloro-5-(3-methylbut-1-yn-1-yl)phenyl)thio)-9-(3-(isopropylamino)propyl)-9H-purin-6-amine]
0.18 | > 50 | – | CC(C)NCCCn1c(Sc2cc(Cl)cc(C#CC3CC3)c2)nc2c(N)ncnc21 [HJP-VI-52, 8-((3-chloro-5-(cyclopropylethynyl)phenyl)thio)-9-(3-(isopropylamino)propyl)-9H-purin-6-amine]
0.63 | > 50 | – | CC(C)NCCCn1c(Sc2cc(Cl)cc(C#CC(C)(C)C)c2)nc2c(N)ncnc21 [HJP-VI-53, 8-((3-chloro-5-(3,3-dimethylbut-1-yn-1-yl)phenyl)thio)-9-(3-(isopropylamino)propyl)-9H-purin-6-amine]
5.8 | > 50 | – | CC(C)NCCCn1c(Sc2cc(Cl)cc(C#CCO)c2)nc2c(N)ncnc21 [HJP-VI-58, 3-(3-((6-amino-9-(3-(isopropylamino)propyl)-9H-purin-8-yl)thio)-5-chlorophenyl)prop-2-yn-1-ol]
7.4 | > 50 | – | CC(O)C#Cc1cc(Cl)cc(Sc2nc3c(N)ncnc3n2CCCNC(C)C)c1 (stereo not drawn) [HJP-VI-59, 4-(3-((6-amino-9-(3-(isopropylamino)propyl)-9H-purin-8-yl)thio)-5-chlorophenyl)but-3-yn-2-ol]
0.28 | > 50 | – | CC(C)=Cc1cc(Cl)cc(Sc2nc3c(N)ncnc3n2CCCNC(C)C)c1 [HJP-VI-62, 8-((3-chloro-5-(2-methylprop-1-en-1-yl)phenyl)thio)-9-(3-(isopropylamino)propyl)-9H-purin-6-amine]
0.24 | > 50 | – | CC(C)NCCCn1c(Sc2cc(Cl)cc(/C=C/C3CC3)c2)nc2c(N)ncnc21 [HJP-VI-64, (E)-8-((3-chloro-5-(2-cyclopropylvinyl)phenyl)thio)-9-(3-(isopropylamino)propyl)-9H-purin-6-amine]
1.9 | > 5 | – | C#CCCCn1c(Sc2cc(Cl)nc(Cl)c2)nc2c(N)ncnc21 [HJP-VI-66, 8-((2,6-dichloropyridin-4-yl)thio)-9-(pent-4-yn-1-yl)-9H-purin-6-amine]
0.102 | 14.2 | – | CC(C)NCCCn1c(Sc2cc(Cl)cc(/C=C/C(C)(C)C)c2)nc2c(N)ncnc21 [HJP-VI-72, (E)-8-((3-chloro-5-(3,3-dimethylbut-1-en-1-yl)phenyl)thio)-9-(3-(isopropylamino)propyl)-9H-purin-6-amine]
> 5 | 9.2 | – | CC(C)NCCCn1c(Sc2ccc(Cl)cc2Cl)nc2c(N)nccc21 [HJP-VI-101, 2-((2,4-dichlorophenyl)thio)-1-(3-(isopropylamino)propyl)-1H-imidazo[4,5-c]pyridin-4-amine]

IC50 (Grp94) [µM] | IC50 (Hsp90α) [µM] | IC50 (Hsp90β) [µM] | SMILES
> 5 | > 50 | – | C#CCCn1cnc(N)c2nc(Sc3cc(Cl)cc(Cl)c3)nc1-2 [PDP-I-14-N3, 3-(But-3-yn-1-yl)-8-((3,5-dichlorophenyl)thio)-3H-purin-6-amine]
> 5 | > 100 | – | C#CCCCn1cnc(N)c2nc(Sc3cccc4ccccc34)nc1-2 [PDP-I-16-N3]
11.1 | > 50 | – | C#CCCCn1cnc(N)c2nc(Sc3ccc(Cl)c(Cl)c3)nc1-2 [PDP-I-25-N3]
> 5 | > 50 | – | C#CCCCn1cnc(N)c2nc(Sc3ccc(-n4cccc4)cc3)nc1-2 [PDP-I-51-N3]
> 10 | > 50 | – | C#CCCCn1c(Sc2ccc(-n3cccc3)cc2)nc2c(N)ncnc21 [PDP-I-51-N9]
> 10 | > 50 | – | C#CCCCn1cnc(N)c2nc(Sc3ccc(Br)cc3CC)nc1-2 [PDP-I-54-N3]
> 5 | > 50 | – | C#CCCCn1c(Sc2cc(Br)cc3ccn(Cc4ccc(OC)cc4)c23)nc2c(N)ncnc21 [PDP-I-55-N9]
> 10 | > 50 | – | C#CCCCn1cnc(N)c2nc(Sc3cn(Cc4ccc(OC)cc4)c4ncc(Br)cc34)nc1-2 [PDP-I-58-N3]
> 10 | > 50 | – | C#CCCCn1c(Sc2cn(Cc3ccc(OC)cc3)c3ncc(Br)cc23)nc2c(N)ncnc21 [PDP-I-58-N9]
> 5 | > 50 | – | C#CCCCn1cnc(N)c2nc(Sc3ccc(Cl)c4ccccc34)nc1-2 [PDP-I-77-N3]
> 2 | > 50 | – | C#CCCCn1c(Sc2ccc(Cl)c3ccccc23)nc2c(N)ncnc21 [PDP-I-77-N9]
> 5 | > 50 | – | C#CCCCn1cnc(N)c2nc(Sc3cc(Cl)cc4c(Cl)ccnc34)nc1-2 [PDP-I-79-N3]
0.5 ± 0.2 | – | 6.5 ± 2.3 | C#CCCCn1c(Sc2cc(Cl)ccc2C(F)(F)F)nc2c(N)ncnc21 [PU-H2]
1.5 ± 0.2 | > 100 | – | C#CCCCn1c(Sc2ccc(Cl)cc2)nc2c(N)ncnc21 [PU-H7]
0.373 | 52.2 | – | CN1CCN(CCn2c(Sc3cc(Cl)cc(Cl)c3)nc3c(N)ncnc32)CC1 [SO-III-39A, 8-((3,5-dichlorophenyl)thio)-9-(2-(4-methylpiperazin-1-yl)ethyl)-9H-purin-6-amine]
0.89 | 39.9 | – | COC(C)CNCCn1c(Sc2cc(Cl)cc(Cl)c2)nc2c(N)ncnc21 (stereo not drawn) [SO-III-75A, 8-((3,5-dichlorophenyl)thio)-9-(2-((2-methoxypropyl)amino)ethyl)-9H-purin-6-amine]
0.203 | > 10 | – | Nc1ncnc2c1nc(Sc1cc(Cl)cc(Cl)c1)n2CCCn1ccnc1 [SO-III-103A, 9-(3-(1H-imidazol-1-yl)propyl)-8-((3,5-dichlorophenyl)thio)-9H-purin-6-amine]
2.59 | > 50 | – | CC(C)NCCCn1c(Sc2cc(Cl)cc(Cl)c2)nc2c(N)nccc21 [SO-III-154, 2-((3,5-dichlorophenyl)thio)-1-(3-(isopropylamino)propyl)-1H-imidazo[4,5-c]pyridin-4-amine]
> 5 | > 50 | – | CC(C)NCCCn1c(Sc2cccc3ccccc23)nc2c(N)nccc21 [SO-IV-03, 1-(3-(isopropylamino)propyl)-2-(naphthalen-1-ylthio)-1H-imidazo[4,5-c]pyridin-4-amine]
25 | > 100 | – | Cc1ccc(Sc2nc3c(N)ncn(CCCNC(C)C)c-3n2)c(C)c1 [WS-11, 8-((2,4-Dimethylphenyl)thio)-3-(3-(isopropylamino)propyl)-3H-purin-6-amine]
2.43 | 8.56 | – | CC(C)NCCCn1c(Sc2cc(C(F)(F)F)cc(C(F)(F)F)c2)nc2c(N)ncnc21 [WS-14, 8-((3,5-Bis(trifluoromethyl)phenyl)thio)-9-(3-(isopropylamino)propyl)-9H-purin-6-amine]

From patent US12600725B2 (Memorial Sloan-Kettering Cancer Center, priority 2013, dated 2026)
